Results as given in US7179823B1, “5-membered n-heterocyclic compounds with hypoglycemic and hypolipidemic activity” (Takeda Pharmaceutical Company Limited, priority 1999, dated 2007).

melting point | SMILES
133 to 134 °C | CCOc1nn(Cc2ccc(OCc3ccc4ccccc4n3)nc2)cc1CCC(=O)O [Example 252, 3-[3-ethoxy-1-[6-(2-quinolylmethoxy)-3-pyridylmethyl]-1H-pyrazol-4-yl]propionic acid]
149 to 150 °C | O=C(O)CCc1cn(Cc2ccc(OCc3csc(-c4ccncc4)n3)cc2)cc1-c1ccccc1 [Example 34, 3-[4-phenyl-1-[4-[2-(4-pyridyl)-4-thiazolylmethoxy)benzyl]-3-pyrrolyl]propionic acid]
96 to 97 °C | CCOC(=O)c1cn(Cc2ccc(Oc3ccccc3)cc2)nc1OCc1nc(-c2ccccc2)oc1C [Example 329, ethyl 3-(5-methyl-2-phenyl-4-oxazolylmethoxy)-1-(4-phenoxybenzyl)-1H-pyrazole-4-carboxylate]
148 to 149 °C | O=C(O)c1cn(Cc2cccc(Oc3ccccc3)c2)nc1-c1ccccc1 [Example 50, 1-(3-phenoxybenzyl)-3-phenyl-1H-pyrazole-4-carboxylic acid]
153 to 154 °C | CCOc1nn(Cc2ccc(OCc3cn4c(Cl)cccc4n3)cc2)cc1CCC(=O)O [Example 225, 3-[1-[4-(5-chloroimidazo[1,2-a]pyridin-2-ylmethoxy)benzyl]-3-ethoxy-1H-pyrazol-4-yl]propionic acid]
177 to 178 °C | CCOc1nn(Cc2ccnc(OCc3cn4c(-c5ccccc5)cccc4n3)c2)cc1CCC(=O)O [Example 238, 3-[3-ethoxy-1-[2-(5-phenylimidazo[1,2-a]pyridin-2-ylmethoxy)-4-pyridylmethyl]-1H-pyrazol-4-yl]propionic acid]
178 to 179 °C | O=C(O)CCc1cn(Cc2ccc(OCc3ccc4ccccc4n3)cc2)nc1-c1ccc(F)cc1 [Example 294, 3-[3-(4-fluorophenyl)-1-[4-(2-quinolylmethoxy)benzyl]-1H-pyrazol-4-yl]propionic acid]
113 to 114 °C | CCOC(=O)/C=C/c1cn(Cc2ccc(OCc3ccccc3)cc2)nc1-c1ccc(F)cc1 [Example 281, ethyl (E)-3-[1-(4-benzyloxybenzyl)-3-(4-fluorophenyl)-1H-pyrazol-4-yl]propenoate]
160 to 161 °C | CCOc1nn(Cc2ccnc(OCc3cn4c(Cl)cccc4n3)c2)cc1CCC(=O)O [Example 236, 3-[1-[2-(5-chloroimidazo[1,2-a]pyridin-2-ylmethoxy)-4-pyridylmethyl]-3-ethoxy-1H-pyrazol-4-yl]propionic acid]
197 to 198 °C | CCOc1nn(Cc2ccc(OCc3cn4c(OCC)cccc4n3)cc2)cc1CCC(=O)O [Example 227, 3-[3-ethoxy-1-[4-(5-ethoxyimidazo[1,2-a]pyridin-2-ylmethoxy)benzyl]-1H-pyrazol-4-yl]propionic acid]
137 to 138 °C | COc1ccc(-c2nn(Cc3ccc(OCc4nc(-c5ccccc5)oc4C)cc3)cc2CCC(=O)O)cc1 [Example 102, 3-[3-(4-methoxyphenyl)-1-[4-(5-methyl-2-phenyl-4-oxazolylmethoxy)benzyl]-1H-pyrazol-4-yl]propionic acid]
104 to 105 °C | CCOC(=O)CCc1cn(Cc2ccc(OCc3cn4c(-c5ccccc5)cccc4n3)cc2)nc1OCC [Example 231, ethyl 3-[3-ethoxy-1-[4-(5-phenylimidazo[1,2-a]pyridin-2-ylmethoxy)benzyl]-1H-pyrazol-4-yl]propionate]
136 to 137 °C | CCOc1nn(Cc2ccc(OCn3nnc4ccccc43)cc2)cc1CCC(=O)O [Example 229, 3-[1-[4-(1H-benzotriazol-1-ylmethoxy)benzyl]-3-ethoxy-1H-pyrazol-4-yl]propionic acid]
210 to 211 °C | Cc1oc(-c2ccccc2)nc1COc1nn(Cc2ccc(Oc3ccccc3)cc2)cc1/C=C/C(=O)O [Example 333, (E)-3-[3-(5-methyl-2-phenyl-4-oxazolylmethoxy)-1-(4-phenoxybenzyl)-1H-pyrazol-4-yl]propenoic acid]
